Values belong to the compound of their own block, whether it stands above or below them.
Legend:
ERRγ = format: cell-based; settings: for Functional Assay at 10 μM (% of control), Cpds: 24 hours, AD293; for Functional Assay, Cpds/Ref 5182: activity relative to reference compound GSK5182, 10 μM
Procedure: AD293 was cultured in a 24-well plate for 24 hours, using a DMEM High glucose culture medium (Hyclone, USA) to which 0.5% FBS was added at a concentration of 9×10^4/well. The culture medium was replaced with a DMEM High glucose culture medium to which 10% FBS was added, treatment was performed with a mixture of a TransIT-LT1 transfection reagent (Mirus, USA) and pCMX-Gal4-ERRγ, pFR-luciferase reporter plasmid, pCMV-β-gal, and culturing was performed for 24 hours. Thereafter, a luciferase activity assay and a β-gal assay were performed, respectively, with a lysate obtained after treatment with the arylethene derivative of the present invention for 24 hours. All results were derived from three or more independent repetitive experiments.

in vivo = format: in vivo; settings: rat, IV, 1 mg/kg
Procedure: An oral administration group fasts the day before.
Blood of each animal is collected at 0 hour.
Into a tail vein of an intravenous administration group (IV), a drug is injected at a dose of 1 mg/kg (syringe).
To an oral administration group (PO), a drug is orally administered at a dose of 10 mg/kg (oral zondec)
After administration, blood of the intravenous administration group was collected through a jugular vein 8 times at 0.08, 0.25, 0.5, 1, 2, 4, 6, and 8 hours. One collected blood amount is 400 to 500 ul.
After administration, blood of the oral administration group was collected through a jugular vein 6 times at 0.25, 0.5, 1, 4, 6 and 8 hours. One collected blood amount is 400 to 500 ul.
Supernatant plasma is collected by a centrifuge.
The supernatant plasma was injected into a LC-MS/MS system and the drug is analyzed.

[1] = 1 μM, 30 minutes, 37° C., NADPH
Procedure: 2) Microsomal Stability Evaluation
(§1) Four liver microsomes (Human, Dog, Rat, Mouse 0.5 mg/ml) with a 0.1 M phosphate buffer solution (pH 7.4), and the arylethene derivative of the present invention were added to a concentration of 1 μM, culturing was performed at 37° C. for 5 minutes in advance, a NADPH regeneration system solution was added thereto, and culturing was performed at 37° C. for 30 minutes. Thereafter, in order to complete the reaction, an acetonitrile solution containing an internal standard material (chlorpropamide) was added thereto, centrifugation (14,000 rpm, 4° C.) was performed for 5 minutes, and a supernatant was injected into a LC-MS/MS system to analyze the substrate drug, thereby evaluating metabolism stability to the arylethene derivative of the present invention.

[2] = 1 μM, 30 minutes, 37° C., NADPH; remark: listed apart in the source
Procedure: 2) Microsomal Stability Evaluation
as §1

in vitro = in vitro ADME; set-up: Papp at 5 h: dose or concentration left out as unconfirmed; settings: PBS pH 7.4, 25° C.
Procedure: 3) Parallel Artificial Membrane Permeability Assay (PAMPA) Evaluation
PAMPA is a method which has been developed for testing cell membrane permeability of a material in a test tube, and has been performed using a lipid tri-layer PVDF membrane available from Corning Gentest (NY, US), the used reagents were all purchased from Sigma (MO, US). First, a test material is diluted in PBS (pH 7.4) to a final concentration of 10 mM, 300 mL of the solution is added to the bottom well of a 96-transwell equipped with a PVDF membrane, and 200 mL of PBS is added to the upper well. Then, a plate is reacted at 25° C. for 5 hours, 20 mL of the solution in each well is transferred to a new container, and 80 mL of acetonitrile containing an internal standard material (4 mM chloropropamide) is added thereto. A concentration of the material in the solution is analyzed using LC-MS/MS (ThermoFisher Scientific, MO, US), and the transmittance of the material is calculated according to the equation reported in the reference document.

Structure (SMILES): CC(C)N1CCN(c2ccc(/C(=C(/CCCO)c3ccccc3)c3ccc(OS(=O)(=O)C(F)(F)F)cc3)cc2)CC1 [Compound 28d]
Functional Assay at 10 μM (% of control), Cpds (ERRγ): 1.69 % of control
Functional Assay, Cpds/Ref 5182 (ERRγ): 1.78

Structure (SMILES): C[C@@]12CNC[C@]1(C)CN(CC(=O)Nc1ccc(/C(=C(/CCCO)c3ccccc3)c3ccc(O)cc3)cc1)C2 [Compound 46, 2-((3aR,6aS)-3a,6a-dimethylhexahydropyrrolo[3,4-c]pyrrol-2(1H)-yl)-N-(4-((E)-5-hydroxy-1-(4-hydroxyphenyl)-2-phenylpent-1-en-1-yl)phenyl)acetamide]
Functional Assay at 10 μM (% of control), Cpds (ERRγ): 78.46 % of control
Functional Assay, Cpds/Ref 5182 (ERRγ): 24.91

Structure (SMILES): OCCC/C(=C(\c1ccc(O)cc1)c1ccc(C2CNC2)cc1)c1ccccc1 [Compound 20e]
AUCINF (in vivo): 0.34 μMh
AUCall (in vivo): 0.28 μMh
Vss (in vivo): 52.8 L/kg
t1/2 (in vivo): 4.4 h
MS(Microsomal Stability) (%) human [1]: 78.1%
MS(Microsomal Stability) (%) rat [2]: 82.1%

Structure (SMILES): OCCC/C(=C(\c1ccc(Br)cc1)c1ccc(C2CNC2)cc1)c1ccccc1 [Compound 20f]
Permeability Pampa (in vitro; 5 hours): 0.14 10^−6 cm/s
MS(Microsomal Stability) (%) human [1]: 83.9%
MS(Microsomal Stability) (%) rat [2]: 99.5%

Structure (SMILES): CN1CCN(c2ccc(/C(=C(/CCCOC(=O)C(C)(C)C)c3ccccc3)c3ccc(OC(=O)C(C)(C)C)cc3)cc2)CC1 [Compound 28g]
Functional Assay at 10 μM (% of control), Cpds (ERRγ): 5.1 % of control
Functional Assay, Cpds/Ref 5182 (ERRγ): 1.25

Structure (SMILES): C[Si](C)(CN1CCCC1)c1ccc(/C(=C(/CCCO)c2ccccc2)c2ccc(O)cc2)cc1 [Compound 42c]
Functional Assay at 10 μM (% of control), Cpds (ERRγ): 2.6 % of control
Functional Assay, Cpds/Ref 5182 (ERRγ): 0.89

Structure (SMILES): CN1CCN(Cc2ccc(/C(=C(/CCCO)c3ccccc3)c3ccc(O)cc3)cc2)CC1 [Compound 30a, (E)-4-(5-hydroxy-1-(4-((4-methylpiperazin-1-yl)methyl)phenyl)-2-phenylpent-1-en-1-yl)phenol]
Functional Assay at 10 μM (% of control), Cpds (ERRγ): 2.94 % of control
Functional Assay, Cpds/Ref 5182 (ERRγ): 3.09

Structure (SMILES): CN1C[C@@H]1CCCOc1ccc(/C(=C(/CCCO)c2ccccc2)c2ccc(Br)cc2)cc1 (some centres unmarked) [Compound 13c]
Functional Assay at 10 μM (% of control), Cpds (ERRγ): 10.58 % of control
Functional Assay, Cpds/Ref 5182 (ERRγ): 3.36

Structure (SMILES): C[Si](C)(CN1C[C@H]2CNC[C@H]2C1)c1ccc(/C(=C(/CCCO)c2ccccc2)c2ccc(O)cc2)cc1 [Compound 42e]
Functional Assay at 10 μM (% of control), Cpds (ERRγ): 26.04 % of control
Functional Assay, Cpds/Ref 5182 (ERRγ): 6.37

Structure (SMILES): OCCC/C(=C(\c1ccc(O)cc1)c1ccc(N2CCOCC2)cc1)c1ccccc1 [Compound 18o]
Functional Assay at 10 μM (% of control), Cpds (ERRγ): 23.2 % of control
Functional Assay, Cpds/Ref 5182 (ERRγ): 2.33

Structure (SMILES): OCCC/C(=C(\c1ccc(O)cc1)c1ccc(N2CCNCC2)cc1)c1ccccc1 [Compound 20c]
Functional Assay at 10 μM (% of control), Cpds (ERRγ): 2.72 % of control
Functional Assay, Cpds/Ref 5182 (ERRγ): 0.93
MS(Microsomal Stability) (%) human [1]: 55.8%
MS(Microsomal Stability) (%) rat [2]: 53.7%

Structure (SMILES): CN1CCN(c2ccc(/C(=C(/CCCOC(=O)C(C)(C)C)c3ccccc3)c3ccc(O)cc3)cc2)CC1 [Compound 28f]
Functional Assay at 10 μM (% of control), Cpds (ERRγ): 4 % of control
Functional Assay, Cpds/Ref 5182 (ERRγ): 0.98

Structure (SMILES): CC(C)N1CCN(c2ccc(/C(=C(/CCCO)c3ccccc3)c3ccc(OS(C)(=O)=O)cc3)cc2)CC1 [Compound 28a, (E)-4-(5-hydroxy-1-(4-(4-isopropylpiperazin-1-yl)phenyl)-2-phenylpent-1-en-1-yl)phenyl methanesulfonate]
Functional Assay at 10 μM (% of control), Cpds (ERRγ): 1.14 % of control
Functional Assay, Cpds/Ref 5182 (ERRγ): 1.20

Structure (SMILES): CN1CCN(c2ccc(/C(=C(/CCCO)c3ccccc3)c3ccc(OC(=O)C(C)(C)C)cc3)cc2)CC1 [Compound 28e]
Functional Assay at 10 μM (% of control), Cpds (ERRγ): 4.76 % of control
Functional Assay, Cpds/Ref 5182 (ERRγ): 1.16
MS(Microsomal Stability) (%) human [1]: 56.4%
MS(Microsomal Stability) (%) rat [2]: 59.6%

Structure (SMILES): OCCC/C(=C(\c1ccc(O)cc1)c1ccc(NCCN2CCCCC2)cc1)c1ccccc1 [Compound 45, (E)-4-(5-hydroxy-2-phenyl-1-(4-((2-(piperidin-1-yl)ethyl)amino)phenyl)pent-1-en-1-yl)phenol]
Functional Assay at 10 μM (% of control), Cpds (ERRγ): 1.58 % of control
Functional Assay, Cpds/Ref 5182 (ERRγ): 1.55

Structure (SMILES): CN(C)CCn1cc(-c2ccc(/C(=C(/CCCO)c3ccccc3)c3ccc(O)cc3)cc2)nn1 [Compound 18u]
Functional Assay at 10 μM (% of control), Cpds (ERRγ): 5.33 % of control
Functional Assay, Cpds/Ref 5182 (ERRγ): 5.61

MS(Microsomal Stability) (%) human [1]: 64.7%
MS(Microsomal Stability) (%) rat [2]: 72.0%
Structure (SMILES): OCCC/C(=C(\c1ccc(O)cc1)c1ccc(OCCN2C[C@H]3CNC[C@H]3C2)cc1)c1ccccc1 [Compound 40, 4-((Z)-1-(4-(2-((3 aR,6aS)-hexahydropyrrolo[3,4-c]pyrrol-2(1H)-yl)ethoxy)phenyl)-5-hydroxy-2-phenylpent-1-en-1-yl)phenol]
Functional Assay at 10 μM (% of control), Cpds (ERRγ): 2.8 % of control
Functional Assay, Cpds/Ref 5182 (ERRγ): 0.96

Structure (SMILES): CC(C)(C)OC(=O)N1CCN(c2ccc(/C(=C(/CCCO)c3ccccc3)c3ccc(O)cc3)cc2)CC1 [Compound 18m]
Functional Assay at 10 μM (% of control), Cpds (ERRγ): 2.97 % of control
Functional Assay, Cpds/Ref 5182 (ERRγ): 1.01

Structure (SMILES): CN1CCN(C[Si](C)(C)c2ccc(/C(=C(/CCCO)c3ccccc3)c3ccc(O)cc3)cc2)CC1 [Compound 42a, (Z)-4-(1-(4-(dimethyl((4-methylpiperazin-1-yl)methyl)silyl)phenyl)-5-hydroxy-2-phenylpent-1-en-1-yl)phenol]
Functional Assay at 10 μM (% of control), Cpds (ERRγ): 4.37 % of control
Functional Assay, Cpds/Ref 5182 (ERRγ): 1.49

MS(Microsomal Stability) (%) human [1]: 128.0%
MS(Microsomal Stability) (%) rat [2]: 45.2%
Structure (SMILES): OCCC/C(=C(\c1ccc(O)cc1)c1ccc(OCCN2CCOCC2)cc1)c1ccccc1 [Compound 6c]
Functional Assay at 10 μM (% of control), Cpds (ERRγ): 4.64 % of control
Functional Assay, Cpds/Ref 5182 (ERRγ): 1.51

Structure (SMILES): CN1CCN(CCOc2ccc(/C(=C(/CCCO)c3ccccc3)c3ccc(O)cc3)cc2)CC1 [Compound 6b]
Functional Assay at 10 μM (% of control), Cpds (ERRγ): 7.97 % of control
Functional Assay, Cpds/Ref 5182 (ERRγ): 2.59

Structure (SMILES): C[Si](C)(CN1CCCCC1)c1ccc(/C(=C(/CCCO)c2ccccc2)c2ccc(O)cc2)cc1 [Compound 42b]
Functional Assay at 10 μM (% of control), Cpds (ERRγ): 11.6 % of control
Functional Assay, Cpds/Ref 5182 (ERRγ): 1.16
Papp at 5 h (in vitro; PAMPA, read-out: Permeability Pampa): 0.1 ×10⁻⁶ cm/s

Structure (SMILES): C[Si](C)(CC1CCNCC1)c1ccc(/C(=C(/CCCO)c2ccccc2)c2ccc(O)cc2)cc1 [Compound 42d]
Functional Assay at 10 μM (% of control), Cpds (ERRγ): 11.7 % of control
Functional Assay, Cpds/Ref 5182 (ERRγ): 3.99

Structure (SMILES): O=C(CN1CCCCC1)Nc1ccc(/C(=C(/CCCO)c2ccccc2)c2ccc(O)cc2)cc1 [Compound 44, (E)-N-(4-(5-hydroxy-1-(4-hydroxyphenyl)-2-phenylpent-1-en-1-yl)phenyl)-2-(piperidin-1-yl)acetamide]
Functional Assay at 10 μM (% of control), Cpds (ERRγ): 12.94 % of control
Functional Assay, Cpds/Ref 5182 (ERRγ): 3.16

Reference: patent US10934303B2, “Aryl ethene derivative and pharmaceutical composition containing same as active ingredient” (priority 2016, dated 2021)
